pIC50: −log10 of the molar value.
What follows are molecules tested against T1, Full length human recombinant HDAC6 protein (Homo sapiens, UniProt Q9UBN7) (assay: In vitro histone deacetylase assay: enzymatic HDAC6 electrophoretic mobility shift assay). Details: 1 nM enzyme, 2 μM peptide substrate RHKK(Ac)-NH2, 25° C., 12 concentrations; read-out: Inhibitory Concentration (IC50) Values against HDAC6, Activity Range.
T1 sequence (Q9UBN7 1-1215): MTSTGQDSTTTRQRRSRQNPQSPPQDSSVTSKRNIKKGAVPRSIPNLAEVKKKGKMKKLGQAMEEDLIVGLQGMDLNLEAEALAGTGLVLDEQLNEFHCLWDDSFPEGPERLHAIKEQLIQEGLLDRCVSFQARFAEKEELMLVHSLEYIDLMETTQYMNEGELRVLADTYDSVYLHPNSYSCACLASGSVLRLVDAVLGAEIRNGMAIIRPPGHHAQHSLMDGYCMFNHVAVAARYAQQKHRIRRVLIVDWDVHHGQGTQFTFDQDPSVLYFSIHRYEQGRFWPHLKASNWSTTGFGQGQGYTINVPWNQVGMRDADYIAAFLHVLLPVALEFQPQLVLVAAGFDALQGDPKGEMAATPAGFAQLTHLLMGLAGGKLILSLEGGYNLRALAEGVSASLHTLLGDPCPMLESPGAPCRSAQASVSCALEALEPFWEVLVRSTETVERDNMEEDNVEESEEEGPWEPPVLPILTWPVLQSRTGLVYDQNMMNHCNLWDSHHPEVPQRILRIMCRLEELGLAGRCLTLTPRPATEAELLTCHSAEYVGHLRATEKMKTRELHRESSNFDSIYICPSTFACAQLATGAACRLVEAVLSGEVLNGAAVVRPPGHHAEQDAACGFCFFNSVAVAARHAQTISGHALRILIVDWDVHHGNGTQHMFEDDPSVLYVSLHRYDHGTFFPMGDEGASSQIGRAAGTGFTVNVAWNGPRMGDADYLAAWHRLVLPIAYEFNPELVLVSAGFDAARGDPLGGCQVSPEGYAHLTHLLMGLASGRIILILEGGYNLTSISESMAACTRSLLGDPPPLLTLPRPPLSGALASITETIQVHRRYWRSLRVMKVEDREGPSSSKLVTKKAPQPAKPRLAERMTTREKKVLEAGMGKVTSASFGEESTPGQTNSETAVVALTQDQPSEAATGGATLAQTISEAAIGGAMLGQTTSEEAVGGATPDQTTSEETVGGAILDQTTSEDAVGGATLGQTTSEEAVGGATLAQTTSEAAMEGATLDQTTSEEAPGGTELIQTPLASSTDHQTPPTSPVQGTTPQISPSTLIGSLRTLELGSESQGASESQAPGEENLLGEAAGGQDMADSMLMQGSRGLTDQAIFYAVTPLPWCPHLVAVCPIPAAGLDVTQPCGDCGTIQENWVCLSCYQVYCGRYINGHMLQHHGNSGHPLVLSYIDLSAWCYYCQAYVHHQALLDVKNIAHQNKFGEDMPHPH
Format: biochemical

How did the pIC50 turn out when Cn1cccc1C(=O)N1CCOc2cc(C(=O)NO)ccc2C1 [N-hydroxy-4-(1-methyl-1H-pyrrole-2-carbonyl)-2,3,4,5-tetrahydrobenzo[f][1,4]oxazepine-8-carboxamide] was run?
The pIC50 was at least 7.00.

C[C@H]1COc2cc(C(=O)NO)ccc2CN1C(=O)C1CC1 [(S)-4-(cyclopropanecarbonyl)-N-hydroxy-3-methyl-2,3,4,5-tetrahydrobenzo[f][1,4]oxazepine-8-carboxamide] was tested. Which pIC50 did it give?
Its pIC50 is at least 7.00.

C[C@H]1COc2cc(C(=O)NO)ccc2CN1C(=O)[C@]1(C)CCCCO1 [(S)-N-hydroxy-3-methyl-4-((S)-2-methyltetrahydro-2H-pyran-2-carbonyl)-2,3,4,5-tetrahydrobenzo[f][1,4]oxazepine-8-carboxamide] was tested. Which pIC50 did it give?
Its pIC50 is at least 7.00.

With C[C@H]1COc2cc(C(=O)NO)ccc2CN1C(=O)C1(F)CCOCC1 [(S)-4-(4-fluorotetrahydro-2H-pyran-4-carbonyl)-N-hydroxy-3-methyl-2,3,4,5-tetrahydrobenzo[f][1,4]oxazepine-8-carboxamide] as the molecule, how does the pIC50 read?
The pIC50 was at least 7.00.

With COc1ccc(OCC(=O)N2CCOc3cc(C(=O)NO)ccc3C2)cc1 [N-hydroxy-4-(2-(4-methoxyphenoxy)acetyl)-2,3,4,5-tetrahydrobenzo[f][1,4]oxazepine-8-carboxamide] as the molecule, how does the pIC50 read?
The pIC50 was at least 7.00.

With O=C(NO)c1ccc2c(c1)OC[C@H](C(F)(F)F)N(C(=O)C1CCOCC1)C2 [(R)-N-hydroxy-4-(tetrahydro-2H-pyran-4-carbonyl)-3-(trifluoromethyl)-2,3,4,5-tetrahydrobenzo[f][1,4]oxazepine-8-carboxamide] as the molecule, how does the pIC50 read?
The pIC50 was at least 7.00.

With CC(C)[C@@H]1COc2cc(C(=O)NO)ccc2CN1C(=O)C1(C)CCC1 [(R)-N-hydroxy-3-isopropyl-4-(1-methylcyclobutane-1-carbonyl)-2,3,4,5-tetrahydrobenzo[f][1,4]oxazepine-8-carboxamide] as the molecule, how does the pIC50 read?
The pIC50 was under 6.30.

With O=C(NO)c1ccc2c(c1)OCCN(C(=O)C1(S(=O)(=O)c3ccccc3)CC1)C2 [N-hydroxy-4-(1-(phenylsulfonyl)cyclopropane-1-carbonyl)-2,3,4,5-tetrahydrobenzo[f][1,4]oxazepine-8-carboxamide] as the molecule, how does the pIC50 read?
Its pIC50 is at least 7.00.

How did the pIC50 turn out when CC1(C(=O)N2CCOc3cc(C(=O)NO)ccc3C2)CCOCC1 [N-hydroxy-4-(4-methyltetrahydro-2H-pyran-4-carbonyl)-2,3,4,5-tetrahydrobenzo[f][1,4]oxazepine-8-carboxamide] was run?
Its pIC50 is at least 7.00.

How did the pIC50 turn out when O=C(NO)c1ccc2c(c1)OCCN(C(=O)C1CC3CCC(C1)O3)C2 (centres unmarked) [4-(8-oxabicyclo[3.2.1]octane-3-carbonyl)-N-hydroxy-2,3,4,5-tetrahydrobenzo[f][1,4]oxazepine-8-carboxamide] was run?
Its pIC50 is at least 7.00.

How did the pIC50 turn out when CC(C)(C(=O)N1CCOc2cc(C(=O)NO)ccc2C1)c1ccc2ccccc2c1 [N-hydroxy-4-(2-methyl-2-(naphthalen-2-yl)propanoyl)-2,3,4,5-tetrahydrobenzo[f][1,4]oxazepine-8-carboxamide] was run?
Its pIC50 is 6.30 to 7.00.

How did the pIC50 turn out when CC(C)(C)OC(=O)N1CCC2(CC1)CC(C(=O)N1CCOc3cc(C(=O)NO)ccc3C1)c1ccccc12 (centres unmarked) [tert-butyl 3-(8-(hydroxycarbamoyl)-2,3,4,5-tetrahydrobenzo[f][1,4]oxazepine-4-carbonyl)-2,3-dihydrospiro[indene-1,4′-piperidine]-1′-carboxylate] was run?
The pIC50 was 6.30 to 7.00.

How did the pIC50 turn out when C[C@H]1CN(C(=O)C2(C)CCC2)Cc2ccc(C(=O)NO)cc2O1 [(S)-N-hydroxy-2-methyl-4-(1-methylcyclobutane-1-carbonyl)-2,3,4,5-tetrahydrobenzo[f][1,4]oxazepine-8-carboxamide] was run?
The pIC50 was 6.30 to 7.00.

How did the pIC50 turn out when CC(C)(C)C(=O)N1CCOc2cc(C(=O)NO)ccc2C1 [N-hydroxy-4-pivaloyl-2,3,4,5-tetrahydrobenzo[f][1,4]oxazepine-8-carboxamide] was run?
The pIC50 was at least 7.00.

C[C@H]1c2ccc(C(=O)NO)cc2OCCN1C(=O)[C@H]1CCCOC1 [(S)-N-hydroxy-5-methyl-4-((S)-tetrahydro-2H-pyran-3-carbonyl)-2,3,4,5-tetrahydrobenzo[f][1,4]oxazepine-8-carboxamide] was tested. Which pIC50 did it give?
Its pIC50 is at least 7.00.

How did the pIC50 turn out when C[C@H]1COc2cc(C(=O)NO)ccc2CN1C(=O)CC1CCOCC1 [(S)-N-hydroxy-3-methyl-4-(2-(tetrahydro-2H-pyran-4-yl)acetyl)-2,3,4,5-tetrahydrobenzo[f][1,4]oxazepine-8-carboxamide] was run?
The pIC50 was 6.30 to 7.00.

With O=C(NO)c1ccc2c(c1)OCCN(C(=O)CC1CC1)C2 [4-(2-cyclopropylacetyl)-N-hydroxy-2,3,4,5-tetrahydrobenzo[f][1,4]oxazepine-8-carboxamide] as the molecule, how does the pIC50 read?
The pIC50 was at least 7.00.

How did the pIC50 turn out when O=C(NO)c1ccc2c(c1)OCCN(C(=O)C1(c3ccccc3C(F)(F)F)CC1)C2 [N-hydroxy-4-(1-(2-(trifluoromethyl)phenyl)cyclopropane-1-carbonyl)-2,3,4,5-tetrahydrobenzo[f][1,4]oxazepine-8-carboxamide] was run?
The pIC50 was at least 7.00.

With O=C(NO)c1ccc2c(c1)OCCN(C(=O)Cn1cccc(C(F)(F)F)c1=O)C2 [N-hydroxy-4-(2-(2-oxo-3-(trifluoromethyl)pyridin-1(2H)-yl)acetyl)-2,3,4,5-tetrahydrobenzo[f][1,4]oxazepine-8-carboxamide] as the molecule, how does the pIC50 read?
Its pIC50 is 6.30 to 7.00.

How did the pIC50 turn out when CC(=O)N1CCC(C(=O)N2Cc3ccc(C(=O)NO)cc3OC[C@@H]2C)C1 (stereo partly drawn) [(3S)-4-(1-acetylpyrrolidine-3-carbonyl)-N-hydroxy-3-methyl-2,3,4,5-tetrahydrobenzo[f][1,4]oxazepine-8-carboxamide] was run?
The pIC50 was at least 7.00.

O=C(NO)c1ccc2c(c1)OCCN(C(=O)C1OC3(CCNCC3)c3ccccc31)C2 (centres unmarked) [N-hydroxy-4-(3H-spiro[isobenzofuran-1,4′-piperidine]-3-carbonyl)-2,3,4,5-tetrahydrobenzo[f][1,4]oxazepine-8-carboxamide] was tested. Which pIC50 did it give?
Its pIC50 is 6.30 to 7.00.

O=C(NO)c1ccc2c(c1)OCCN(C(=O)CCC(F)(F)F)C2 [N-hydroxy-4-(4,4,4-trifluorobutanoyl)-2,3,4,5-tetrahydrobenzo[f][1,4]oxazepine-8-carboxamide] was tested. Which pIC50 did it give?
The pIC50 was 6.30 to 7.00.

How did the pIC50 turn out when CC(C)[C@@H]1c2ccc(C(=O)NO)cc2OCCN1C(=O)C1CCOCC1 [(R)-N-hydroxy-5-isopropyl-4-(tetrahydro-2H-pyran-4-carbonyl)-2,3,4,5-tetrahydrobenzo[f][1,4]oxazepine-8-carboxamide] was run?
Its pIC50 is under 6.30.

How did the pIC50 turn out when CC(=O)N1Cc2ccc(C(=O)NO)cc2O[C@H](C)C1 [(R)-4-acetyl-N-hydroxy-2-methyl-2,3,4,5-tetrahydrobenzo[f][1,4]oxazepine-8-carboxamide] was run?
Its pIC50 is under 6.30.

How did the pIC50 turn out when O=C(NO)c1ccc2c(c1)OCCN(C(=O)COc1cccc(Cl)c1)C2 [4-(2-(3-chlorophenoxy)acetyl)-N-hydroxy-2,3,4,5-tetrahydrobenzo[f][1,4]oxazepine-8-carboxamide] was run?
Its pIC50 is 6.30 to 7.00.

With CC(C)(C)OC(=O)N1CCC2(CC1)c1ccccc1OC2C(=O)N1CCOc2cc(C(=O)NO)ccc2C1 (centres unmarked) [tert-butyl 2-(8-(hydroxycarbamoyl)-2,3,4,5-tetrahydrobenzo[f][1,4]oxazepine-4-carbonyl)-2H-spiro[benzofuran-3,4′-piperidine]-1′-carboxylate] as the molecule, how does the pIC50 read?
Its pIC50 is 6.30 to 7.00.

How did the pIC50 turn out when CC(C)[C@@H]1C[C@@H](C(=O)N2Cc3ccc(C(=O)NO)cc3OC[C@@H]2C)CCO1 [(S)-N-hydroxy-4-((2S,4S)-2-isopropyltetrahydro-2H-pyran-4-carbonyl)-3-methyl-2,3,4,5-tetrahydrobenzo[f][1,4]oxazepine-8-carboxamide] was run?
The pIC50 was at least 7.00.

COc1ccc(CC(C(=O)N2CCOc3cc(C(=O)NO)ccc3C2)c2ccccc2)cc1 (centres unmarked) [N-hydroxy-4-(3-(4-methoxyphenyl)-2-phenylpropanoyl)-2,3,4,5-tetrahydrobenzo[f][1,4]oxazepine-8-carboxamide] was tested. Which pIC50 did it give?
The pIC50 was 6.30 to 7.00.

How did the pIC50 turn out when CC1(C(=O)N2CCOc3cc(C(=O)NO)ccc3C2)CCC1 [N-hydroxy-4-(1-methylcyclobutane-1-carbonyl)-2,3,4,5-tetrahydrobenzo[f][1,4]oxazepine-8-carboxamide] was run?
The pIC50 was at least 7.00.

How did the pIC50 turn out when C[C@H]1COc2cc(C(=O)NO)ccc2CN1C(=O)[C@H]1C[C@H](Oc2ccccc2)C1 (single isomer, unassigned) was run?
The pIC50 was at least 7.00.

How did the pIC50 turn out when COc1ccc(C(=O)N2CCOc3cc(C(=O)NO)ccc3C2)c(OC)c1 [4-(2,4-dimethoxybenzoyl)-N-hydroxy-2,3,4,5-tetrahydrobenzo[f][1,4]oxazepine-8-carboxamide] was run?
Its pIC50 is 6.30 to 7.00.

CCC1(C(=O)N2CCOc3cc(C(=O)NO)ccc3C2)COC1 [4-(3-ethyloxetane-3-carbonyl)-N-hydroxy-2,3,4,5-tetrahydrobenzo[f][1,4]oxazepine-8-carboxamide] was tested. Which pIC50 did it give?
Its pIC50 is at least 7.00.
